Patent US10807982B2, “Bromodomain inhibitors” (CELGENE QUANTICEL RESEARCH, INC., priority 2015, dated 2020)

Key:
[1] = molecular target: BRD4(BD1) (Homo sapiens (Human), UniProt O60885); assay: In vitro enzyme inhibition assay (BRD4 AlphaScreen, H4-tetraacetyl peptide); type: binding; settings: BRD4(BD1) 2 nM, peptide 15 nM
Method: Determination of the IC50 for the heterocyclic derivative BRD4 inhibitors disclosed herein was performed as follows. His-tagged […] was cloned, expressed and purified to homogeneity. Filipakopoulos et al., 468 Nature 1067 (2010). BRD4 binding and inhibition was assessed by monitoring the interaction of biotinylated H4-tetraacetyl peptide (AnaSpec, H4K5/8/12/16(Ac), biotin—labeled) with the target using the AlphaScreen technology (Life Technologies). In a 384-well ProxiPlate BRD4(BD1) (2 nM final) was combined with peptide (15 nM final) in 50 mM HEPES (pH 7.3), 10 mM NaCl, 0.25 mM TCEP, 0.1% (w/v) BSA, and 0.005% (w/v) Brij-35 either in the presence of DMSO (final 0.4% DMSO) or compound dilution series in DMSO. After 20 min incubation at RT, Alpha streptavidin donor beads and Nickel Chelate acceptor beads were added to a final concentration of 5 μg/mL. After 2 hr of equilibration, plates were read on an Envision instrument and the IC50 was calculated using a four parameter non-linear curve fit.
The ability of the compounds disclosed herein to inhibit BRD4 activity was quantified and the respective IC50 value was determined.

[2] = test system: HL-60, human proleukemia cells; assay: Cell-MTS cellular proliferation assay, HL-60; type: cell-based; settings: Homo sapiens, HL-60 cells, 168 hr incubation
Method: (§1) A colorimetric cellular proliferation assay (Cell-MTS assay) was performed to assess the ability of the heterocyclic derivative […] inhibitors disclosed herein to effect the proliferation of established cancer cell lines.
(§2) The Cell-MTS assay is a 7-day plate-based colorimetric assay which quantifies the amount of newly generated NADH in the presence or absence of test compound. The NADH level is used for the quantification of cancer cell proliferation.
(§3) Established cancer cell lines with a variety of driving mutations were obtained from American Type Culture Collection (ATCC) and routinely passaged according to ATCC protocols. For routine assay, these cells were seeded at densities which enabled ˜90% confluence after 7 days of culture. Raji, human Burkitts lymphoma cells, (cMYC) were seeded at 15,000 cells per 96-well. HL-60, human proleukemia cells, (NRAS, p16, p53, c-Myc amplified) were seeded at 5,000 cells per 96-well. NCI-H460, human non-small cell lung cancer cells. (KRAS, PIK3CA, STLK11, p16) were seeded at 3,000 cells per 96-well. 24 hr after plating, cells received an 11 point dilution of test compound with final concentration ranges from 100 µM to 2.0 nM. Cells were incubated in the presence of compound for 168 hr at 37° C., and 5% CO2. At the end of this incubation period, 80 µL of media is removed and 20 µL of CellTiter 96® AQueous Non-Radioactive Cell Proliferation Assay solution (Promega) was added. The cells were incubated until the OD490 was >0.6. IC50 values were calculated using the IDBS XLfit software package and include background subtracted OD490 values and normalization to DMSO controls. Cellular proliferation IC50 values were uploaded and archived using the Chem Biography Platform. Table 3 provides the results of the in vitro enzyme inhibition assay experiments and the in vitro cell-based assay experiments performed with the compounds disclosed herein: […]

[3] = test system: Raji, human Burkitts lymphoma cells; assay: Cell-MTS cellular proliferation assay, Raji; type: cell-based; settings: Homo sapiens, 168 hr incubation
Method: as §1, §2, §3

[4] = test system: NCI-H460, human non-small cell lung cancer cells; assay: Cell-MTS cellular proliferation assay, NCI-H460; type: cell-based; settings: Homo sapiens, 168 hr incubation
Method: as §1, §2, §3

IC50 [1] [µM] | IC50 [2] [µM] | IC50 [3] [µM] | IC50 [4] [µM] | Structure (SMILES)
≤ 0.5 | ≤ 0.5 | ≤ 0.5 | > 5 | Cc1cc(-c2cc(NS(C)(=O)=O)c3c(F)nn(Cc4ccc(F)cc4)c3c2)cn(C)c1=O [Example 64, N-[6-(1,5-dimethyl-6-oxopyridin-3-yl)-3-fluoro-1-[(4-fluorophenyl)methyl]indazol-4-yl]methanesulfonamide]
≤ 0.5 | ≤ 0.5 | 0.5 to 5 | > 5 | Cc1cc(-c2cc3c(cc2OCC(F)(F)F)CN(C)S3(=O)=O)cn(C)c1=O [Example 9, 1,3-dimethyl-5-[2-methyl-1,1-dioxo-5-(2,2,2-trifluoroethoxy)-3H-1,2-benzothiazol-6-yl]pyridine-2-one]
≤ 0.5 | ≤ 0.5 | ≤ 0.5 | > 5 | COc1cc(-c2cc3c(S(C)(=O)=O)nn(C)c3cc2OCC2CC2)cn(C)c1=O [Example 59, 5-[6-(cyclopropylmethoxy)-1-methyl-3-methylsulfonylindazol-5-yl]-3-methoxy-1-methylpyridin-2-one]
≤ 0.5 | ≤ 0.5 | ≤ 0.5 | 0.5 to 5 | CCS(=O)(=O)Nc1cc(-c2cc(C)c(=O)n(C)c2)cc2c1nnn2Cc1ccccc1 [Example 27, N-[1-benzyl-6-(1,5-dimethyl-6-oxopyridin-3-yl)benzotriazol-4-yl]ethanesulfonamide]
≤ 0.5 | ≤ 0.5 | ≤ 0.5 | 0.5 to 5 | Cc1cc(-c2cc(NS(C)(=O)=O)c3c(c2)N(Cc2ccccc2)CC3)cn(C)c1=O [Example 19, N-[1-benzyl-6-(1,5-dimethyl-6-oxopyridin-3-yl)-2,3-dihydroindol-4-yl]methanesulfonamide]
≤ 0.5 | ≤ 0.5 | ≤ 0.5 | 0.5 to 5 | CCS(=O)(=O)Nc1cc(-c2cc(C)c(=O)n(C)c2)cc2c1ncn2Cc1cccc(F)c1 [Example 33, N-[6-(1,5-dimethyl-6-oxopyridin-3-yl)-1-[(3-fluorophenyl)methyl]benzimidazol-4-yl]ethanesulfonamide]
≤ 0.5 | 0.5 to 5 | > 5 | > 5 | Cc1cc(-c2cc(S(C)(=O)=O)c3nc(C)n(CC4CC4)c3c2)cn(C)c1=O [Example 71, 5-[3-(cyclopropylmethyl)-2-methyl-7-methylsulfonylbenzimidazol-5-yl]-1,3-dimethylpyridin-2-one]
≤ 0.5 | ≤ 0.5 | ≤ 0.5 | 0.5 to 5 | Cc1cc(-c2cc(NS(C)(=O)=O)c3nc(C)n([C@@H](C)c4ccccc4)c3c2)cn(C)c1=O [Example 44, N-[6-(1,5-dimethyl-6-oxopyridin-3-yl)-2-methyl-1-[(1S)-(1-phenylethyl)]benzimidazol-4-yl]methanesulfonamide]
0.5 to 5 | 0.5 to 5 | > 5 | > 5 | Cn1cc(-c2ccc3c(c2)S(=O)(=O)NC3)c2ccccc2c1=O [Example 2, 4-(1,1-dioxo-2,3-dihydro-1,2-benzothiazol-6-yl)-2-methylisoquinolin-1-one]
≤ 0.5 | ≤ 0.5 | ≤ 0.5 | > 5 | CCS(=O)(=O)Cc1cc(-c2cc(OC)c(=O)n(C)c2)c2oc(C3CC3)nc2c1 [Example 100, 5-[2-cyclopropyl-5-(ethylsulfonylmethyl)-1,3-benzoxazol-7-yl]-3-methoxy-1-methylpyridin-2-one]
≤ 0.5 | ≤ 0.5 | ≤ 0.5 | > 5 | Cc1cc(-c2cc(NS(C)(=O)=O)c3c(F)nn(CC4CC4)c3c2)cn(C)c1=O [Example 66, N-[1-(cyclopropylmethyl)-6-(1,5-dimethyl-6-oxopyridin-3-yl)-3-fluoroindazol-4-yl]methanesulfonamide]
≤ 0.5 | ≤ 0.5 | ≤ 0.5 | 0.5 to 5 | Cn1cc(-c2cc(NS(C)(=O)=O)c3ccn(Cc4ccccc4)c3c2)c2ccccc2c1=O [Example 17, N-[1-benzyl-6-(2-methyl-1-oxoisoquinolin-4-yl)indol-4-yl]methanesulfonamide]
≤ 0.5 | ≤ 0.5 | ≤ 0.5 | 0.5 to 5 | CCS(=O)(=O)N1CCc2cc(OCC3CC3)c(-c3cn(C)c(=O)c4ccccc34)cc21 [Example 14, 4-[5-(cyclopropylmethoxy)-1-ethylsulfonyl-2,3-dihydroindol-6-yl]-2-methylisoquinolin-1-one]
≤ 0.5 | ≤ 0.5 | ≤ 0.5 | > 5 | COc1nc2c(CS(C)(=O)=O)cc(-c3cc(C)c(=O)n(C)c3)cc2n1CC1CC1 [Example 99, 5-[3-(cyclopropylmethyl)-2-methoxy-7-(methylsulfonylmethyl)benzimidazol-5-yl]-1,3-dimethylpyridin-2-one]
≤ 0.5 | ≤ 0.5 | ≤ 0.5 | 0.5 to 5 | CCS(=O)(=O)Nc1cc(-c2cc(C)c(=O)n(C)c2)cc2c1nnn2Cc1ccc(F)cc1 [Example 28, N-[6-(1,5-dimethyl-6-oxopyridin-3-yl)-1-[(4-fluorophenyl)methyl]benzotriazol-4-yl]ethanesulfonamide]
≤ 0.5 | ≤ 0.5 | 0.5 to 5 | 0.5 to 5 | CN1Cc2cc(OCC3CC3)c(-c3cn(C)c(=O)c4ccccc34)cc2S1(=O)=O [Example 6, 4-[5-(cyclopropyhnethoxy)-2-methyl-1,1-dioxo-3H-1,2-benzothiazol-6-yl]-2-methylisoquinolin-1-one]
≤ 0.5 | 0.5 to 5 | 0.5 to 5 | > 5 | CCS(=O)(=O)c1cc(-c2cc(OC)c(=O)n(C)c2)cc2c1nc(C)n2Cc1ccccc1 [Example 68, 5-(3-benzyl-7-ethylsulfonyl-2-methylbenzimidazol-5-yl)-3-methoxy-1-methylpyridin-2-one]
≤ 0.5 | ≤ 0.5 | ≤ 0.5 | > 5 | Cc1cc(-c2cc(S(C)(=O)=O)ccc2OCC2CC2)c2n(c1=O)CC(C)(C)C2 [Example 87, 8-[2-(cyclopropylmethoxy)-5-methylsulfonylphenyl]-2,2,6-trimethyl-1,3-dihydroindolizin-5-one]
≤ 0.5 | ≤ 0.5 | ≤ 0.5 | 0.5 to 5 | Cn1cc(-c2cc3c(cc2OCC2CC2)CCN3S(C)(=O)=O)c2ccccc2c1=O [Example 13, 4-[5-(cyclopropylmethoxy)-1-methylsulfonyl-2,3-dihydroindol-6-yl]-2-methylisoquinolin-1-one]
≤ 0.5 | ≤ 0.5 | ≤ 0.5 | > 5 | CCOc1nc2c(CS(C)(=O)=O)cc(-c3cc(C)c(=O)n(C)c3)cc2n1CC1CC1 [Example 97, 5-[3-(cyclopropylmethyl)-2-ethoxy-7-(methylsulfonylmethyl)benzimidazol-5-yl]-1,3-dimethylpyridin-2-one]
≤ 0.5 | ≤ 0.5 | ≤ 0.5 | > 5 | CCS(=O)(=O)Nc1cc(-c2cc(C)c(=O)n(C)c2)c2oc(C3CCCC3)nc2c1 [Example 52, N-[2-cyclopentyl-7-(1,5-dimethyl-6-oxopyridin-3-yl)-1,3-benzoxazol-5-yl]ethanesulfonamide]
